Measurements as given in ChEMBL document CHEMBL1201862, “PubChem BioAssay data set” (2004).
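Tested at 5 concentrations; 48 h exposure; 96-well plates; endpoints linearly interpolated, else capped at highest concentration. GI50 is the concentration that inhibits growth by half.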 Calls of active or inactive are those of the source. Cut-off read from the data, not from the text of the source: active = GI50 up to about 1.1 µM and inactive = higher.

Tests used:
Experiment in all cases: NCI tumour cell line growth inhibition, 48 h
[1] = tested on: 786-0
[2] = tested on: A549
[3] = tested on: ACHN
[4] = tested on: CCRF-CEM
[5] = tested on: COLO 205
[6] = tested on: DLD-1
[7] = tested on: DMS-114
[8] = tested on: DMS-273
[9] = tested on: EKVX
[10] = tested on: HCC 2998
[11] = tested on: HCT-116
[12] = tested on: HCT-15
[13] = tested on: HL-60
[14] = tested on: HOP-62
[15] = tested on: HOP-92
[16] = tested on: HT-29
[17] = tested on: IGROV-1
[18] = tested on: K562
[19] = tested on: KM-20L2
[20] = tested on: KM12
[21] = tested on: LXFL 529
[22] = tested on: M14
[23] = tested on: M19-MEL
[24] = tested on: MOLT-4
[25] = tested on: Malme-3M
[26] = tested on: NCI-H23
[27] = tested on: NCI-H460
[28] = tested on: NCI-H522
[29] = tested on: OVCAR-3
[30] = tested on: OVCAR-4
[31] = tested on: OVCAR-5
[32] = tested on: OVCAR-8
[33] = tested on: RPMI-8226
[34] = tested on: RXF 393
[35] = tested on: RXF 631
[36] = tested on: SF-268
[37] = tested on: SF-295
[38] = tested on: SF-539
[39] = tested on: SK-MEL-28
[40] = tested on: SK-MEL-2
[41] = tested on: SK-MEL-5
[42] = tested on: SN12C
[43] = tested on: SNB-19
[44] = tested on: SNB-75
[45] = tested on: SNB-78
[46] = tested on: SW-620
[47] = tested on: TK-10
[48] = tested on: U-251
[49] = tested on: UACC-257
[50] = tested on: UACC-62
[51] = tested on: UO-31
[52] = tested on: XF498
[53] = tested on: A498
[54] = tested on: CAKI-1
[55] = tested on: HOP-18
[56] = tested on: LOX IMVI
[57] = tested on: NCI-H226
[58] = tested on: SK-OV-3
[59] = tested on: SR

Measured: GI50

O=C1c2ccccc2-c2cccc3ccc(Cc4ccccc4)c1c23
inactive: [1] > 100 µM | [2] > 100 µM | [3] > 100 µM | [4] > 100 µM | [5] > 100 µM | [6] > 100 µM | [7] > 100 µM | [8] > 100 µM | [9] > 100 µM | [10] > 100 µM | [11] > 100 µM | [13] > 100 µM | [14] > 100 µM | [15] > 100 µM | [16] > 100 µM | [17] > 100 µM | [18] 37.6 µM | [19] > 100 µM | [20] > 100 µM | [21] > 100 µM | [22] > 100 µM | [23] > 100 µM | [24] > 100 µM | [25] > 100 µM | [26] > 100 µM | [27] > 100 µM | [28] > 100 µM | [29] > 100 µM | [30] 84.3 µM | [31] > 100 µM | [32] > 100 µM | [33] > 100 µM | [34] > 100 µM | [35] > 100 µM | [36] > 100 µM | [37] > 100 µM | [38] > 100 µM | [39] > 100 µM | [40] > 100 µM | [41] > 100 µM | [42] > 100 µM | [43] > 100 µM | [44] 6.53 µM | [45] > 100 µM | [46] > 100 µM | [47] > 100 µM | [48] > 100 µM | [49] > 100 µM | [50] > 100 µM | [51] > 100 µM | [52] > 100 µM
> 100 µM: [12]

O=C1/C(=N\O)S(=O)(=O)c2ccccc21
inactive: [1] > 100 µM | [53] > 100 µM | [2] > 100 µM | [3] > 100 µM | [54] > 100 µM | [4] > 100 µM | [5] > 100 µM | [6] > 100 µM | [7] > 100 µM | [8] > 100 µM | [10] > 100 µM | [11] > 100 µM | [13] > 100 µM | [55] > 100 µM | [14] > 100 µM | [15] > 100 µM | [16] 92.7 µM | [17] > 100 µM | [18] > 100 µM | [19] 59.2 µM | [20] > 100 µM | [56] > 100 µM | [21] > 100 µM | [22] > 100 µM | [23] > 100 µM | [24] > 100 µM | [25] > 100 µM | [57] > 100 µM | [27] > 100 µM | [28] > 100 µM | [30] > 100 µM | [31] > 100 µM | [32] > 100 µM | [33] > 100 µM | [34] > 100 µM | [35] > 100 µM | [36] > 100 µM | [37] > 100 µM | [38] > 100 µM | [40] > 100 µM | [41] > 100 µM | [58] > 100 µM | [42] > 100 µM | [43] > 100 µM | [44] > 100 µM | [45] > 100 µM | [59] > 100 µM | [46] > 100 µM | [47] > 100 µM | [48] > 100 µM | [49] > 100 µM | [50] > 100 µM | [51] > 100 µM
> 100 µM: [12]

COc1cccc(NC(=O)/C(Cc2nc3ccccc3nc2C)=N/NC(=O)C[n+]2ccccc2)c1
inactive: [1] > 100 µM | [53] > 100 µM | [2] > 100 µM | [3] > 100 µM | [54] > 100 µM | [4] 51.5 µM | [5] 20.8 µM | [6] > 100 µM | [7] > 100 µM | [8] 63.4 µM | [9] > 100 µM | [10] > 100 µM | [11] 67.1 µM | [13] > 100 µM | [55] > 100 µM | [14] > 100 µM | [16] > 100 µM | [17] > 100 µM | [18] 71.9 µM | [19] > 100 µM | [20] > 100 µM | [56] > 100 µM | [21] > 100 µM | [22] > 100 µM | [23] > 100 µM | [24] > 100 µM | [25] > 100 µM | [57] > 100 µM | [26] > 100 µM | [27] 66.4 µM | [29] > 100 µM | [30] > 100 µM | [31] > 100 µM | [32] > 100 µM | [33] 26.5 µM | [36] > 100 µM | [37] > 100 µM | [38] > 100 µM | [39] > 100 µM | [40] > 100 µM | [41] > 100 µM | [58] > 100 µM | [42] > 100 µM | [43] > 100 µM | [44] > 100 µM | [45] > 100 µM | [59] > 100 µM | [46] 9.08 µM | [47] > 100 µM | [48] 17.7 µM | [49] 45.4 µM | [50] > 100 µM | [51] > 100 µM | [52] > 100 µM
> 100 µM: [12]

C/C(CC(=O)Nc1ccc(Cl)c(Cl)c1)=N/NC(=O)C[N+](C)(C)C
inactive: [1] 56.5 µM | [53] > 100 µM | [2] > 100 µM | [3] > 100 µM | [54] > 100 µM | [4] > 100 µM | [5] 35.2 µM | [6] 29.2 µM | [7] 21.5 µM | [8] 38.8 µM | [9] > 100 µM | [10] > 100 µM | [11] > 100 µM | [13] 44 µM | [55] > 100 µM | [14] > 100 µM | [15] > 100 µM | [16] > 100 µM | [17] > 100 µM | [18] 46.1 µM | [19] > 100 µM | [20] > 100 µM | [56] 18.1 µM | [21] > 100 µM | [22] > 100 µM | [23] > 100 µM | [24] > 100 µM | [25] > 100 µM | [57] > 100 µM | [26] > 100 µM | [27] 65.2 µM | [29] > 100 µM | [30] > 100 µM | [31] > 100 µM | [32] > 100 µM | [33] 25.8 µM | [34] > 100 µM | [36] > 100 µM | [37] > 100 µM | [38] > 100 µM | [40] > 100 µM | [41] > 100 µM | [42] > 100 µM | [43] > 100 µM | [44] > 100 µM | [45] > 100 µM | [59] 22.5 µM | [47] > 100 µM | [49] > 100 µM | [50] > 100 µM | [51] > 100 µM | [52] > 100 µM
> 100 µM: [12]
active: [39] 0.194 µM

COc1ccc2cc1Oc1ccc(cc1)C[C@@H]1c3cc(c(OC)cc3CCN1C)Oc1c(OC)c(OC)cc3c1[C@@H](C2)N(C)CC3 [PHAEANTHINE]
15.6 µM: [12]
inactive: [53] 18.5 µM | [3] 19.2 µM | [4] 14.3 µM | [6] 24.8 µM | [8] 17.3 µM | [10] 15.8 µM | [11] 2.83 µM | [13] 16.7 µM | [14] 18.9 µM | [15] 13.2 µM | [17] 19.8 µM | [18] 2.11 µM | [19] 6.56 µM | [21] 18.7 µM | [22] 1.98 µM | [26] 17.6 µM | [27] 14.3 µM | [28] 15.7 µM | [29] 15.7 µM | [32] 14.9 µM | [33] 15.6 µM | [34] 1.6 µM | [35] 14.1 µM | [36] 25 µM | [37] 17.5 µM | [38] 10.9 µM | [41] 17.2 µM | [58] 24.7 µM | [43] 16.9 µM | [44] 9.73 µM | [45] 16.6 µM | [59] 15.9 µM | [47] 19.2 µM | [48] 13.2 µM | [49] 14.9 µM | [52] 6.98 µM
